Laboratory results published in ChEMBL document CHEMBL1144567, “Linker-modified triamine-linked acridine dimers: synthesis and cytotoxicity properties in vitro and in vivo” (Bioorg Med Chem, 2007).

Assays:
Nucleic Acid = assay: Binding affinity to Escherichia coli JM83 pUC19 DNA assessed as DNA intercalation assay; type: nucleic-acid assay
[1] = Cytotoxicity against SKBR3 cells after 72 hrs by MTT assay; type: cell-based; details: Homo sapiens, SK-BR-3, 72 h
[2] = Cytotoxicity against human HA22T cells after 72 hrs by MTT assay; type: cell-based
COLO 205 [3] = assay: Cytotoxicity against human COLO205 cells after 72 hrs by MTT assay; type: cell-based; details: COLO 205, 72 h
MOLT-4 = assay: Cytotoxicity against MOLT4 cells after 72 hrs by MTT assay; details: Homo sapiens, MOLT-4, 72 h
[4] = Toxicity in ICR mouse; type: organism-based; details: in vivo
COLO 205 [5] = assay: Antitumor activity against human COLO205 cells implanted in SCID mouse at 10 mg/kg injected into tail vein; type: functional; details: read-out: TGI
COLO 205 [6] = assay: Antitumor activity against human COLO205 cells implanted in SCID mouse at 22.5 mg/kg injected into tail vein; type: functional; details: read-out: TGI

Structure (SMILES) | SC50 (Nucleic Acid) [µM] | IC50 [1] [nM] | IC50 [2] [nM] | IC50 (COLO 205 [3]) [nM] | IC50 (MOLT-4) [nM] | MTD [4] [mg/kg] | inhibition in vivo at 10 mg/kg (COLO 205 [5]) [%] | inhibition in vivo at 22.5 mg/kg (COLO 205 [6]) [%]
COc1ccc2nc3cc(Cl)ccc3c(NCCCN(CCCNc3c4ccc(Cl)cc4nc4ccc(OC)cc34)Cc3ccco3)c2c1 | 2 | 840 | 610 | 240 | < 10 | – | – | –
COc1ccc2nc3cc(Cl)ccc3c(NCCCN(CCCNc3c4ccc(Cl)cc4nc4ccc(OC)cc34)CC3COC(C)(C)O3)c2c1 (stereo not drawn) | – | 6610 | 3430 | 5600 | < 10 | – | – | –
COc1ccc2nc3cc(Cl)ccc3c(NCCCN(CCCNc3c4ccc(Cl)cc4nc4ccc(OC)cc34)Cc3cc(OC)c(OC)c(OC)c3)c2c1 | – | 5040 | 4420 | 4500 | 60 | – | – | –
COc1ccc2nc3cc(Cl)ccc3c(NCCCN(CCCNc3c4ccc(Cl)cc4nc4ccc(OC)cc34)Cc3ccc(Cl)cc3)c2c1 | – | 530 | 580 | 200 | < 10 | – | – | –
CCc1ccc(CN(CCCNc2c3ccc(Cl)cc3nc3ccc(OC)cc23)CCCNc2c3ccc(Cl)cc3nc3ccc(OC)cc23)o1 | – | 5250 | 3320 | 2560 | 100 | – | – | –
COc1ccc2nc3cc(Cl)ccc3c(NCCCN(CCCNc3c4ccc(Cl)cc4nc4ccc(OC)cc34)Cc3ccccc3OC)c2c1 | 2 | 710 | 930 | 3610 | < 10 | – | – | –
COc1ccc(CN(CCCCNc2c3ccc(Cl)cc3nc3ccc(OC)cc23)CCCNc2c3ccc(Cl)cc3nc3ccc(OC)cc23)cc1 | – | 860 | 5450 | 390 | 710 | – | – | –
COc1ccc2nc3cc(Cl)ccc3c(NCCCN(CCCNc3c4ccc(Cl)cc4nc4ccc(OC)cc34)Cc3ccc(Br)s3)c2c1 | > 20 | 5800 | 1150 | 850 | < 10 | – | – | –
COc1ccc2nc3cc(Cl)ccc3c(NCCCN(CCCNc3c4ccc(Cl)cc4nc4ccc(OC)cc34)CC3OC(C)(C)OC3C3COC(C)(C)O3)c2c1 (stereo not drawn) | – | 4730 | 4680 | 2190 | 60 | – | – | –
COc1ccc2nc3cc(Cl)ccc3c(NCCCN(CCCNc3c4ccc(Cl)cc4nc4ccc(OC)cc34)Cc3ccccn3)c2c1 | 2 | 720 | 3970 | 10 | < 10 | 10 | 0 | –
COc1ccc2nc3cc(Cl)ccc3c(NCCCN(CCCNc3c4ccc(Cl)cc4nc4ccc(OC)cc34)Cc3cc(Br)cs3)c2c1 | – | 700 | 840 | 720 | 60 | – | – | –
COc1ccc2nc3cc(Cl)ccc3c(NCCCN(CCCNc3c4ccc(Cl)cc4nc4ccc(OC)cc34)Cc3ccc(Br)o3)c2c1 | > 20 | 4240 | 1110 | 410 | < 10 | – | – | –
COc1ccc2nc3cc(Cl)ccc3c(NCCCCN(CCCNc3c4ccc(Cl)cc4nc4ccc(OC)cc34)Cc3cccs3)c2c1 | – | 680 | 440 | 500 | 40 | – | – | –
COc1ccc2nc3cc(Cl)ccc3c(NCCCN(CCCNc3c4ccc(Cl)cc4nc4ccc(OC)cc34)CC3CC3)c2c1 | 2 | 820 | 480 | 1270 | < 10 | – | – | –
COc1ccc2nc3cc(Cl)ccc3c(NCCCN(C)CCCNc3c4ccc(Cl)cc4nc4ccc(OC)cc34)c2c1 | – | 700 | 620 | 160 | < 20 | 22.5 | – | 2
CCCN(CCCNc1c2ccc(Cl)cc2nc2ccc(OC)cc12)CCCNc1c2ccc(Cl)cc2nc2ccc(OC)cc12 | 2 | 5780 | 5980 | 1460 | < 20 | – | – | –
COc1ccc2nc3cc(Cl)ccc3c(NCCCCN(CCCNc3c4ccc(Cl)cc4nc4ccc(OC)cc34)Cc3ccsc3)c2c1 | – | 990 | 3590 | 250 | < 10 | – | – | –
COc1cccc(CN(CCCNc2c3ccc(Cl)cc3nc3ccc(OC)cc23)CCCNc2c3ccc(Cl)cc3nc3ccc(OC)cc23)c1 | 2 | 680 | 420 | 350 | < 10 | – | – | –

Structure (SMILES) | SC50 (Nucleic Acid) [µM] | IC50 [1] [nM] | IC50 [2] [nM] | IC50 (COLO 205 [3]) [nM] | IC50 (MOLT-4) [nM] | MTD [4] [mg/kg] | inhibition in vivo at 10 mg/kg (COLO 205 [5]) [%] | inhibition in vivo at 22.5 mg/kg (COLO 205 [6]) [%]
COc1cccc2c1C(=O)c1c(O)c3c(c(O)c1C2=O)C[C@@](O)(C(=O)CO)C[C@@H]3O[C@H]1C[C@H](N)[C@H](O)[C@H](C)O1 [DOXORUBICIN] | 10 | 290 | 310 | 260 | – | – | – | –
COc1ccc2nc3cc(Cl)ccc3c(NCCCCN(CCCNc3c4ccc(Cl)cc4nc4ccc(OC)cc34)Cc3ccoc3)c2c1 | – | 710 | 440 | 320 | 30 | – | – | –
COc1ccc2nc3cc(Cl)ccc3c(NCCCNCCCNc3c4ccc(Cl)cc4nc4ccc(OC)cc34)c2c1 | 4 | 770 | 330 | 410 | < 20 | 10 | 80 | –
COc1cccc(CN(CCCCNc2c3ccc(Cl)cc3nc3ccc(OC)cc23)CCCNc2c3ccc(Cl)cc3nc3ccc(OC)cc23)c1 | – | 1300 | 5660 | 250 | 710 | – | – | –
COc1ccc2nc3cc(Cl)ccc3c(NCCCN(CCCNc3c4ccc(Cl)cc4nc4ccc(OC)cc34)Cc3ccccc3)c2c1 | 2 | 700 | 700 | 750 | 700 | – | – | –
COc1ccc2nc3cc(Cl)ccc3c(NCCCCN(CCCNc3c4ccc(Cl)cc4nc4ccc(OC)cc34)Cc3ccco3)c2c1 | – | 5070 | 4730 | 370 | 60 | – | – | –
CCCCCCN(CCCNc1c2ccc(Cl)cc2nc2ccc(OC)cc12)CCCNc1c2ccc(Cl)cc2nc2ccc(OC)cc12 | – | 6140 | 6950 | 890 | 90 | – | – | –
COc1ccc2nc3cc(Cl)ccc3c(NCCCN(CCCNc3c4ccc(Cl)cc4nc4ccc(OC)cc34)Cc3ccoc3)c2c1 | 2 | 690 | 360 | 460 | 10 | 10 | 24 | –
CCN(CCCNc1c2ccc(Cl)cc2nc2ccc(OC)cc12)CCCNc1c2ccc(Cl)cc2nc2ccc(OC)cc12 | – | 7310 | 5330 | 90 | < 20 | 30 | – | –
COc1ccc2nc3cc(Cl)ccc3c(NCCCN(CCCNc3c4ccc(Cl)cc4nc4ccc(OC)cc34)Cc3ccc(F)cc3F)c2c1 | – | 780 | 230 | 770 | < 10 | – | – | –
COc1ccc2nc3cc(Cl)ccc3c(NCCCN(CCCNc3c4ccc(Cl)cc4nc4ccc(OC)cc34)Cc3sccc3C)c2c1 | 2 | 70 | 60 | 10 | < 10 | – | – | –
COc1ccc2nc3cc(Cl)ccc3c(NCCCN(CCCNc3c4ccc(Cl)cc4nc4ccc(OC)cc34)Cc3cccc(OC)c3OC)c2c1 | 2 | 790 | 620 | 640 | 10 | – | – | –
COc1ccc2nc3cc(Cl)ccc3c(NCCCCN(CCCNc3c4ccc(Cl)cc4nc4ccc(OC)cc34)CC3CC3)c2c1 | 2 | 720 | 510 | 10 | < 10 | – | – | –
COc1ccc2nc3cc(Cl)ccc3c(NCCCCNCCCNc3c4ccc(Cl)cc4nc4ccc(OC)cc34)c2c1 | 4 | 50 | 330 | 130 | < 20 | – | – | –
COc1ccc2nc3cc(Cl)ccc3c(NCCCN(CCCNc3c4ccc(Cl)cc4nc4ccc(OC)cc34)Cc3cccnc3)c2c1 | – | 640 | 740 | 500 | < 10 | – | – | –
COc1ccc2nc3cc(Cl)ccc3c(NCCCN(CCCNc3c4ccc(Cl)cc4nc4ccc(OC)cc34)Cc3ccsc3)c2c1 | – | 1170 | 1410 | 560 | 70 | – | – | –
COc1ccc2nc3cc(Cl)ccc3c(NCCCN(CCCNc3c4ccc(Cl)cc4nc4ccc(OC)cc34)CCc3ccccc3)c2c1 | – | 680 | 650 | 700 | < 10 | – | – | –
COc1ccc2nc3cc(Cl)ccc3c(NCCCN(CCCNc3c4ccc(Cl)cc4nc4ccc(OC)cc34)CC(O)CO)c2c1 (stereo not drawn) | – | 1290 | 1720 | 130 | < 10 | – | – | –
